These results are taken from publication PMC7210504 (Biochemistry, 2017).

Test [1] has as its target T1, ChuY (Escherichia coli, UniProt Q8X5N4). Briefly: biochemical.
Test [2] has as its target ChuY from Escherichia coli O157:H7 (anaerobilin reductase) (Escherichia coli O157:H7). Briefly: AUC.
The target of test [3] is T1, ChuY. The note with it: 30 μM NADPH; anaerobic, pH 8.1, 25 °C; substrate inhibition constant (kinetic).
In test [4] the target is T1, ChuY. The note with it: read-out: steady state parameters^a / Km ^app; 30 μM NADPH; anaerobic, pH 8.1, 25 °C.

Usually Kd stands for the concentration at which binding is half-saturated. Low values mean higher affinity, high ones lower affinity. As usually defined, the stoichiometry N is the number of molecules, sites or subunits per partner or assembly.

Turning to `NC(=O)C1=CN([C@@H]2O[C@H](COP(=O)(O)OP(=O)(O)OC[C@H]3O[C@@H](n4cnc5c(N)ncnc54)[C@H](OP(=O)(O)O)[C@@H]3O)[C@@H](O)[C@H]2O)C=CC1` [NADPH], binding at ChuY [1] was put at a Kd of 2700 ± 200 nM.

In the case of “ChuY from Escherichia coli O157:H7 (anaerobilin reductase) (enzyme)”, in test [2], the percent of the c(s) distribution (species consistent with a dimer) is 90% and the stoichiometry N stood at 2.

Take deuteroanaerobilin [DAB]: the “equilibrium binding^b / Ki ^app” value on ChuY [3] is 14 ± 2 µM. For the same compound, the Km on ChuY [4] turned out to be 1600 ± 300 nM.
